Test results taken from US20240246957A1, “Diazepane Derivatives, Processes for their Preparation, and Uses thereof for the Amelioration, Prevention and/or Treatment of Mental and Neurological Diseases” (2N Pharma ApS, priority 2021, published 2024).

Columns and labels:
SOD1 G93A mice = experiment: Efficacy study (survival) in SOD1 G93A mouse model of ALS; format: in vivo; conditions: compared to vehicle, Edaravone and Riluzole, survival = neurological score below 4, FIG. 2
Description: All experiments were approved by the Danish Animal Experiment Inspectorate (2017-15-0202-00088) and followed the National and European guidelines for conducting animal experiments. Animal experiments was conducted according to the ARRIVE guidelines. Mice were housed in IVC cages in a high barrier facility at Aalborg University, Denmark with a room temperature of 21° C. The mice were kept at a 12-hour light/dark cycle and had ad libitum access to food and water.
B6.Cg-Tg(SOD1*G93A)1Gur/J mice (Stock #004435) (SOD1) were purchased from Jackson Laboratory (Bar Harbor, USA). The congenic SOD1 mice were maintained in our animal facility by crossing hemizygote SOD1 male mice with female C57BI/6J mice. Litters were genotyped according to established protocol using DNA extracted from ear tissue punches. Male SOD1 mice were used to maintain the colony, and SOD1 female and their wildtype littermates were used for experiments. All animals were assessed for human endpoints daily, weight twice a week, and neurological score once a week. SOD1 females (n=4) were evaluated at baseline and day 128 for cylinder, dark-light and y-maze tests, and at baseline and day 142 by neurological score, grip strength, hangwire test and rotarod. […] In addition, survival was evaluated as described under neurological score, onset of disease and survival analysis.
Mice were evaluated by the same experimenter weekly. […]

HEK293 cells = experiment: Fatty acid uptake assay using HEK293 cells; format: cell-based; conditions: Homo sapiens, CPT1 inhibitor, racemic mixture, FIG. 1
Description: HEK293 cells were thawed and centrifuged at 400 g in 1 min, whereafter the supernatant was discarded. The cells were resuspended in DMEM+GlutaMax medium (cat #10566016, Invitrogen) containing 10% fetal calf serum (cat #10270-106, Invitrogen) and 1% penicillin/streptomycin (cat #15140-122, Life Technologies). HEK293 cells were seeded into a T25 flask and incubated at 37 degrees Celsius until 80% confluency. When the HEK293 cells reached confluency, cells were counted and seeded in a 96-well plate and with a volume of 10.000 cells/well in medium (as described above) and incubated overnight. Three wells were without cells serving as controls.
The cells were divided into two groups: 1) Example 1, and 2) Untreated. The fatty acid uptake assay (cat #408-100, BioVision) was carried out according to the protocol from BioVision. The only exception to the protocol was that the measurements in the PerkinElmer Multimode Plate Reader Enspire instrument was running overnight.
Statistics was performed in GraphPad Prism version 8.0. Repeated measure two-way ANOVA were conducted as the groups were tested multiple times followed by a multiple comparison Bonferroni post hoc test.

Row | SMILES | survival (SOD1 G93A mice) | IC50 (HEK293 cells) [µM]
1 | CC(=O)N1CCC(c2nc(-c3ccncc3)cs2)N(C(=O)COc2ccccc2)CC1 (single isomer, unassigned) [Example 1-E2] | improved survival | 
2 | CC(=O)N1CCC(c2nc(-c3ccncc3)cs2)N(C(=O)COc2ccccc2)CC1 (single isomer, unassigned) [Example 1-E1] | improved survival | 
3 | CC(=O)N1CCC(c2nc(-c3ccncc3)cs2)N(C(=O)COc2ccccc2)CC1 (single isomer, unassigned) [Example 1, 1-(4-acetyl-7-(4-(pyridin-4-yl)thiazol-2-yl)-1,4-diazepan-1-yl)-2-phenoxyethan-1-one] |  | 0.3
